{"source": "patent US9572785B2", "about": "“DP2 antagonist and uses thereof” (Brickell Biotech, Inc., priority 2009, dated 2017)", "key": {"[1]": {"molecular_target": "T1, rat DP2 (Rattus norvegicus, UniProt Q6XKD3)", "T1 sequence (Q6XKD3 1-403)": "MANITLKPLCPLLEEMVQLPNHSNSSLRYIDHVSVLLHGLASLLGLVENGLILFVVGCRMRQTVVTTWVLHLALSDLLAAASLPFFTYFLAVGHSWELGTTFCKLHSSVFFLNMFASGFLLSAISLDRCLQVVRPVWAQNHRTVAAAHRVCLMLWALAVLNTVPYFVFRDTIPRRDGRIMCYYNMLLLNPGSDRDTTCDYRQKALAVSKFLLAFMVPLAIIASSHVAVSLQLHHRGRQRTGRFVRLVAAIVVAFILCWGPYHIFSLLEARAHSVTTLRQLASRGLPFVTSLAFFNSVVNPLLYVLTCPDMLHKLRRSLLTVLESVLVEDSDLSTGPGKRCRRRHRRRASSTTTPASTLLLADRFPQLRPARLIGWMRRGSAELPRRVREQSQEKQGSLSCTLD", "experiment": "DP2 radioligand membrane binding assay, rat", "conditions": "read-out: average IC50, inhibition of radiolabeled PGD2 binding", "method": "(§1) HEK293 cells stably expressing recombinant human DP2 are resuspended in 10 mM Hepes, 7.4 containing 1 mM DTT, lysed and centrifuged at 75,000×g to pellet the membranes. The membranes are resuspended in 10 mM Hepes, 7.4 containing 1 mM DTT and 10% glycerol to approximately 5 mg protein/ml. […] The reactions are terminated by rapid filtration through Whatman GF/C glass fibre filter plates. […] After harvesting, the filter plates are washed 3 times with 1 ml cold Wash Buffer then dried. Scintillant is then added to the plates and the radioactivity retained on the filters is determined on a Packard TopCount (Perkin Elmer). Specific binding is determined as total radioactive binding minus non-specific binding in the presence of 10 μM PGD2. IC50s were determined using GraphPad prism analysis of drug titration curves. Mouse, rat and guinea pig DP2 receptors were also investigated."}, "[2]": {"molecular_target": "T2, recombinant human CRTH2 receptor (Homo sapiens, UniProt Q9Y5Y4)", "T2 construct": "expressed in transfected cells", "T2 sequence (Q9Y5Y4 1-395)": "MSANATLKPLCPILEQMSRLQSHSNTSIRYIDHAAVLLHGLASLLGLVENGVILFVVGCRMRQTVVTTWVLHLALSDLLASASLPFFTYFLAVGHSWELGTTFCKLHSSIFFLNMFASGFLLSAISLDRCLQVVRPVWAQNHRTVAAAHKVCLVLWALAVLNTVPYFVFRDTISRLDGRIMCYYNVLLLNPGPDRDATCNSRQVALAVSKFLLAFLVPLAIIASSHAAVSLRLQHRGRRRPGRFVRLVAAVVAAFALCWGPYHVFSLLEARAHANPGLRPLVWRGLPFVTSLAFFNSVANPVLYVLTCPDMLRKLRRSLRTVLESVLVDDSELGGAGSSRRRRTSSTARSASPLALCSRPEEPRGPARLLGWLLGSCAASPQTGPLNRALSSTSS", "experiment": "In vitro GTPγS binding assay", "type": "biochemical", "conditions": "CHO membranes, 80 nM PGD2, 0.2% human serum albumin"}, "[3]": {"molecular_target": "T3, DP2 receptor (Cavia porcellus, UniProt H0W1T0)", "T3 sequence (H0W1T0 1-391)": "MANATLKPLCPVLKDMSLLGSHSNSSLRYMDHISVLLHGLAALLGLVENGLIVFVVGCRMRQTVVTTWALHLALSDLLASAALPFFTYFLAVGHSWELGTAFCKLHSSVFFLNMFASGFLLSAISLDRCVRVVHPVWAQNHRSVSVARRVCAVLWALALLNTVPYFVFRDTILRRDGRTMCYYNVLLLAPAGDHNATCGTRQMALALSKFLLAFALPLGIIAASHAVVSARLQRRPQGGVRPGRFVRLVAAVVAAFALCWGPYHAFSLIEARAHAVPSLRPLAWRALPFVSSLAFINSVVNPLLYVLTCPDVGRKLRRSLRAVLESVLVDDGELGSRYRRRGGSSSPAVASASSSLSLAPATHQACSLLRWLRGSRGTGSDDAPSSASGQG", "experiment": "Whole blood eosinophil shape change (ESC) assay, guinea pig", "type": "cell-based", "conditions": "read-out: IC50, PGD2-induced eosinophil shape change"}, "[4]": {"molecular_target": "T4, DP2 receptor (Homo sapiens, UniProt Q9Y5Y4)", "T4 sequence (Q9Y5Y4 1-395)": "T2 sequence (Q9Y5Y4 1-395)", "experiment": "In vitro scintillation proximity assay (SPA) off-rate", "type": "binding", "conditions": "compared with PGD2"}, "[5]": {"experiment": "Properties of the amorphous phase", "type": "physicochemical"}, "[6]": {"test_system": "CYP2C9"}, "[7]": {"experiment": "in vivo", "conditions": "mouse, plasma, po, 10 mg/kg"}, "[8]": {"experiment": "in vivo", "conditions": "Hartley, guinea pig, in vivo"}, "[9]": {"experiment": "physchem", "conditions": "water, 25 °C, pH 6.1, water, thermodynamic from solid"}, "[10]": {"experiment": "clinical", "conditions": "human"}, "[11]": {"molecular_target": "T4, DP2 receptor", "experiment": "In vitro DP2/CRTH2 radioligand binding assay ([3H]PGD2), human", "parameters": "expressed in transfected cells", "method": "as §1"}, "[12]": {"molecular_target": "T4, DP2 receptor", "experiment": "Whole blood eosinophil shape change (ESC) assay, human", "type": "cell-based", "parameters": "endogenous in cells; host or cells: eosinophils in human whole blood"}}, "note": "Read-outs that look alike come from different tables or passages of the source.", "data": [{"compound": "CCN(Cc1cc(C(F)(F)F)ccc1-c1cc(CC(=O)O)ccc1OC)C(=O)NCc1ccccc1", "note": "[Compound 1, [2′-(3-benzyl-1-ethyl-ureidomethyl)-6-methoxy-4′-trifluoromethyl-biphenyl-3-yl]-acetic acid]", "values": [{"measurement": "IC50", "setting": "[1]", "result": 10.4, "unit": "nM"}, {"measurement": "IC50", "setting": "[2]", "result": "< 20", "unit": "nM"}, {"measurement": "IC50", "setting": "[3]", "result": 21.5, "unit": "nM"}, {"measurement": "off-rate from the DP2 receptor", "setting": "[4]", "result": "longer off-rate than PGD2"}, {"measurement": "solubility in water", "setting": "[5]", "result": "sparingly soluble in water"}, {"measurement": "hygroscopicity, weight change", "setting": "[5]; from 0% to 90% relative humidity", "result": 1.7, "unit": "%"}, {"measurement": "increase in 4-hydroxydiclofenac (CYP2C9) production compared to native cells", "setting": "[6]", "result": 1.1, "unit": "fold"}, {"measurement": "AUC0-24", "setting": "human, in vivo", "result": 44.5, "unit": "ng·h/mL"}, {"measurement": "Cmax", "setting": "human, in vivo", "result": 15.8, "unit": "ng/mL"}, {"measurement": "t1/2", "setting": "multiple dose administration 30 mg, cohort 2, Day 7", "result": 11.0, "unit": "h"}, {"measurement": "concentration at 1 h", "setting": "[7]", "result": 280, "unit": "nM"}, {"measurement": "concentration at 2 h", "setting": "[7]", "result": 150, "unit": "nM"}, {"measurement": "concentration at 4 h", "setting": "[7]", "result": 70, "unit": "nM"}, {"measurement": "concentration at 8 h", "setting": "[7]", "result": 30, "unit": "nM"}, {"measurement": "concentration at 24 h", "setting": "[7]", "result": "< 8", "unit": "nM"}, {"measurement": "concentration at 18.5 h", "setting": "[8]", "result": "< 40", "unit": "nM"}, {"measurement": "solubility at 24 h", "setting": "[9]", "result": 210, "unit": "µg/mL"}, {"measurement": "half-life", "setting": "[10]; in vivo", "result": "6.6 to 11", "unit": "h"}, {"measurement": "AUC(0-t)", "setting": "[10]; plasma, oral, 30 mg", "result": 32.3, "unit": "ng·h/mL"}, {"measurement": "Cmax", "setting": "[10]; plasma, oral, 30 mg", "result": 16, "unit": "ng/mL"}, {"measurement": "AUC(0-t)", "setting": "[10]; plasma, po, 30 mg", "result": 24.1, "unit": "ng·h/mL"}, {"measurement": "Cmax", "setting": "[10]; plasma, po, 30 mg", "result": 11.2, "unit": "ng/mL"}, {"measurement": "half-life", "setting": "[10]; plasma, po, 30 mg", "result": 6.6, "unit": "h"}, {"measurement": "AUC(0-t)", "setting": "[10]; plasma, po, 100 mg", "result": 118, "unit": "ng·h/mL"}, {"measurement": "Cmax", "setting": "[10]; plasma, po, 100 mg", "result": 81, "unit": "ng/mL"}, {"measurement": "half-life", "setting": "[10]; plasma, po, 100 mg", "result": 8.1, "unit": "h"}, {"measurement": "AUC(0-t)", "setting": "[10]; plasma, po, 300 mg", "result": 1420, "unit": "ng·h/mL"}, {"measurement": "Cmax", "setting": "[10]; plasma, po, 300 mg", "result": 1400, "unit": "ng/mL"}, {"measurement": "half-life", "setting": "[10]; plasma, po, 300 mg", "result": 7, "unit": "h"}, {"measurement": "IC50", "setting": "[11]; human DP2, membrane binding, read-out: average IC50, inhibition of radiolabeled PGD2 binding", "result": 4.9, "unit": "nM"}, {"measurement": "IC50", "setting": "[11]; with human serum albumin, read-out: IC50, DP2 receptor binding", "result": 12.2, "unit": "nM"}, {"measurement": "IC90", "setting": "[12]", "result": 7.5, "unit": "nM"}, {"measurement": "IC50", "setting": "[12]; read-out: IC50, PGD2-induced eosinophil shape change", "result": 2.7, "unit": "nM"}]}]}
